In the supplement of paper PMC10307832:

Legend:
Experiment in all cases: relative viability (nuclei count vs DMSO), 5 days (fraction); higher = more cells survive
[1] = compound: O=C(/C=C/c1cccnc1)NCCCCC1CCN(C(=O)c2ccccc2)CC1 [Daporinad] + CCNC(=O)c1noc(-c2cc(C(C)C)c(O)cc2O)c1-c1ccc(CN2CCOCC2)cc1 [Luminespib] (partner 0.01 µM)
Method in brief: (§1)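 Lung cancer cell lines in 1536-well plates got either a single drug or a fixed anchor-drug dose together with five library-drug doses (not always all listed) in √10 steps, by pin tool, on the day after seeding. Nuclei were counted after 5 days, and relative viability is the treated-to-vehicle ratio of nuclei counts. Values are medians of duplicate plates.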

[2] = compound: COc1cc(Nc2ncc(F)c(Nc3ccc4c(n3)NC(=O)C(C)(C)O4)n2)cc(OC)c1OC [R406] + C[C@@H](Oc1cc(-c2cnn(C3CCNCC3)c2)cnc1N)c1c(Cl)ccc(F)c1Cl [Crizotinib] (partner 1 µM)
Method in brief: as §1

[3] = compound: O=C(/C=C/c1cccnc1)NCCCCC1CCN(C(=O)c2ccccc2)CC1 [Daporinad] + Cc1nc(Nc2ncc(C(=O)Nc3c(C)cccc3Cl)s2)cc(N2CCN(CCO)CC2)n1 [Dasatinib] (partner 0.075 µM)
Method in brief: as §1

[4] = compound: O=C(/C=C/c1cccnc1)NCCCCC1CCN(C(=O)c2ccccc2)CC1 [Daporinad] + CC1(C)CCC(c2ccc(Cl)cc2)=C(CN2CCN(c3ccc(C(=O)NS(=O)(=O)c4ccc(N[C@H](CCN5CCOCC5)CSc5ccccc5)c(S(=O)(=O)C(F)(F)F)c4)cc3)CC2)C1 [Navitoclax] (partner 0.5 µM)
Method in brief: as §1

NCI-H2347
relative viability ([1]; first compound 0.0005 µM): 0.607
relative viability ([1]; first compound 0.001581 µM): 0.43
relative viability ([1]; first compound 0.005 µM): 0.322
relative viability ([1]; first compound 0.01581 µM): 0.431
relative viability ([2]; first compound 0.08 µM): 0.588
relative viability ([2]; first compound 0.253 µM): 0.538
relative viability ([2]; first compound 0.8 µM): 0.889
relative viability ([2]; first compound 2.53 µM): 0.556
relative viability ([2]; first compound 8 µM): 0.487
relative viability ([3]; first compound 0.0005 µM): 0.326
relative viability ([3]; first compound 0.001581 µM): 0.308
relative viability ([3]; first compound 0.005 µM): 0.342
relative viability ([3]; first compound 0.01581 µM): 0.299
relative viability ([4]; first compound 0.0005 µM): 0.926
relative viability ([4]; first compound 0.001581 µM): 0.887
relative viability ([4]; first compound 0.005 µM): 0.885
relative viability ([4]; first compound 0.01581 µM): 0.779

NCI-H2405
relative viability ([1]; first compound 0.0005 µM): 0.853
relative viability ([1]; first compound 0.001581 µM): 0.884
relative viability ([1]; first compound 0.005 µM): 1.01
relative viability ([1]; first compound 0.01581 µM): 0.723
relative viability ([2]; first compound 0.08 µM): 0.769
relative viability ([2]; first compound 0.253 µM): 0.989
relative viability ([2]; first compound 0.8 µM): 0.861
relative viability ([2]; first compound 2.53 µM): 0.78
relative viability ([2]; first compound 8 µM): 0.638
relative viability ([3]; first compound 0.0005 µM): 0.168
relative viability ([3]; first compound 0.001581 µM): 0.226
relative viability ([3]; first compound 0.005 µM): 0.231
relative viability ([3]; first compound 0.01581 µM): 0.252
relative viability ([4]; first compound 0.0005 µM): 0.948
relative viability ([4]; first compound 0.001581 µM): 0.962
relative viability ([4]; first compound 0.005 µM): 0.684
relative viability ([4]; first compound 0.01581 µM): 0.321

NCI-H3122
relative viability ([1]; first compound 0.0005 µM): 0.0688
relative viability ([1]; first compound 0.001581 µM): 0.0544
relative viability ([1]; first compound 0.005 µM): 0.0785
relative viability ([1]; first compound 0.01581 µM): 0.0818
relative viability ([2]; first compound 0.08 µM): 0.286
relative viability ([2]; first compound 0.253 µM): 0.257
relative viability ([2]; first compound 0.8 µM): 0.247
relative viability ([2]; first compound 2.53 µM): 0.25
relative viability ([2]; first compound 8 µM): 0.259
relative viability ([3]; first compound 0.0005 µM): 0.664
relative viability ([3]; first compound 0.001581 µM): 0.73
relative viability ([3]; first compound 0.005 µM): 0.807
relative viability ([3]; first compound 0.01581 µM): 0.59
relative viability ([4]; first compound 0.0005 µM): 1.01
relative viability ([4]; first compound 0.001581 µM): 1.02
relative viability ([4]; first compound 0.005 µM): 1.02
relative viability ([4]; first compound 0.01581 µM): 0.987

PC-3 [JPC-3]
relative viability ([1]; first compound 0.0005 µM): 0.68
relative viability ([1]; first compound 0.001581 µM): 0.677
relative viability ([1]; first compound 0.005 µM): 0.73
relative viability ([1]; first compound 0.01581 µM): 0.735
relative viability ([2]; first compound 0.08 µM): 1.04
relative viability ([2]; first compound 0.253 µM): 1
relative viability ([2]; first compound 0.8 µM): 1.02
relative viability ([2]; first compound 2.53 µM): 0.98
relative viability ([2]; first compound 8 µM): 0.885
relative viability ([3]; first compound 0.0005 µM): 0.928
relative viability ([3]; first compound 0.001581 µM): 1.01
relative viability ([3]; first compound 0.005 µM): 0.943
relative viability ([3]; first compound 0.01581 µM): 0.947
relative viability ([4]; first compound 0.0005 µM): 0.763
relative viability ([4]; first compound 0.001581 µM): 0.796
relative viability ([4]; first compound 0.005 µM): 0.827
relative viability ([4]; first compound 0.01581 µM): 0.789

PC-14
relative viability ([1]; first compound 0.001581 µM): 0.106
relative viability ([1]; first compound 0.005 µM): 0.196
relative viability ([1]; first compound 0.01581 µM): 0.196
relative viability ([2]; first compound 0.08 µM): 0.92
relative viability ([2]; first compound 0.253 µM): 1.06
relative viability ([2]; first compound 0.8 µM): 0.862
relative viability ([2]; first compound 2.53 µM): 0.79
relative viability ([2]; first compound 8 µM): 0.687
relative viability ([3]; first compound 0.0005 µM): 0.276
relative viability ([3]; first compound 0.001581 µM): 0.315
relative viability ([3]; first compound 0.005 µM): 0.293
relative viability ([3]; first compound 0.01581 µM): 0.363
relative viability ([4]; first compound 0.0005 µM): 1.05
relative viability ([4]; first compound 0.001581 µM): 1
relative viability ([4]; first compound 0.005 µM): 0.875
relative viability ([4]; first compound 0.01581 µM): 0.721

RERF-LC-KJ
relative viability ([1]; first compound 0.0005 µM): 1.22
relative viability ([1]; first compound 0.001581 µM): 1.4
relative viability ([1]; first compound 0.005 µM): 1.18
relative viability ([1]; first compound 0.01581 µM): 1.07
relative viability ([2]; first compound 0.08 µM): 0.762
relative viability ([2]; first compound 0.253 µM): 0.838
relative viability ([2]; first compound 0.8 µM): 0.875
relative viability ([2]; first compound 2.53 µM): 0.81
relative viability ([2]; first compound 8 µM): 0.771
relative viability ([3]; first compound 0.0005 µM): 0.757
relative viability ([3]; first compound 0.001581 µM): 0.804
relative viability ([3]; first compound 0.005 µM): 0.975
relative viability ([3]; first compound 0.01581 µM): 0.804
relative viability ([4]; first compound 0.0005 µM): 1.04
relative viability ([4]; first compound 0.001581 µM): 0.984
relative viability ([4]; first compound 0.005 µM): 1.01
relative viability ([4]; first compound 0.01581 µM): 1.18

SK-LU-1
relative viability ([1]; first compound 0.0005 µM): 0.193
relative viability ([1]; first compound 0.001581 µM): 0.204
relative viability ([1]; first compound 0.005 µM): 0.227
relative viability ([1]; first compound 0.01581 µM): 0.225
relative viability ([2]; first compound 0.08 µM): 0.997
relative viability ([2]; first compound 0.253 µM): 1.07
relative viability ([2]; first compound 0.8 µM): 1.15
relative viability ([2]; first compound 2.53 µM): 0.424
relative viability ([2]; first compound 8 µM): 0.155
relative viability ([3]; first compound 0.0005 µM): 0.209
relative viability ([3]; first compound 0.001581 µM): 0.184
relative viability ([3]; first compound 0.005 µM): 0.204
relative viability ([3]; first compound 0.01581 µM): 0.235
relative viability ([4]; first compound 0.0005 µM): 0.901
relative viability ([4]; first compound 0.001581 µM): 0.646
relative viability ([4]; first compound 0.005 µM): 0.672
relative viability ([4]; first compound 0.01581 µM): 1.1

SK-MES-1
relative viability ([1]; first compound 0.0005 µM): 0.796
relative viability ([1]; first compound 0.001581 µM): 0.839
relative viability ([1]; first compound 0.005 µM): 0.874
relative viability ([1]; first compound 0.01581 µM): 0.819
relative viability ([2]; first compound 0.08 µM): 0.992
relative viability ([2]; first compound 0.253 µM): 1.04
relative viability ([2]; first compound 0.8 µM): 0.959
relative viability ([2]; first compound 2.53 µM): 0.73
relative viability ([2]; first compound 8 µM): 0.43
relative viability ([3]; first compound 0.0005 µM): 0.417
relative viability ([3]; first compound 0.001581 µM): 0.474
relative viability ([3]; first compound 0.005 µM): 0.315
relative viability ([3]; first compound 0.01581 µM): 0.437
relative viability ([4]; first compound 0.0005 µM): 1.27
relative viability ([4]; first compound 0.001581 µM): 1.16
relative viability ([4]; first compound 0.005 µM): 1.31
relative viability ([4]; first compound 0.01581 µM): 0.852

SW 1573
relative viability ([1]; first compound 0.0005 µM): 0.207
relative viability ([1]; first compound 0.001581 µM): 0.737
relative viability ([1]; first compound 0.005 µM): 0.207
relative viability ([1]; first compound 0.01581 µM): 0.296
relative viability ([2]; first compound 0.08 µM): 0.747
relative viability ([2]; first compound 0.253 µM): 1
relative viability ([2]; first compound 0.8 µM): 0.769
relative viability ([2]; first compound 2.53 µM): 0.653
relative viability ([2]; first compound 8 µM): 0.579
relative viability ([3]; first compound 0.0005 µM): 0.339
relative viability ([3]; first compound 0.001581 µM): 0.801
relative viability ([3]; first compound 0.005 µM): 0.446
relative viability ([3]; first compound 0.01581 µM): 0.367
relative viability ([4]; first compound 0.0005 µM): 0.897
relative viability ([4]; first compound 0.001581 µM): 0.991
relative viability ([4]; first compound 0.005 µM): 0.755
relative viability ([4]; first compound 0.01581 µM): 0.457
